Patent US9387160B2, “Composition and method of treating skin conditions” (Johnson & Johnson Consumer Holdings France, priority 2008, dated 2016)

Key:
[1] = RPI=log K, octanol/water; cited from earlier work
[2] = Relative polarity index (RPI = log K, octanol/water partition coefficient); format: physicochemical; details: difference between Emollient RPI and Retinoid RPI
Source text: The relative polarity index (RPI) of an emollient is well known by the one skilled in the art. The methodology for its calculation is described in the article published by Wiesher et al. 2004 Int J. Cosmetic Science. 26, 173-182. RPI can be calculated from the octanol/water partition coefficient (K) with: RPI=log K. Partition coefficient estimations K have been published, for example in: • Leo A, Hansch C, and Elkins D (1971). “Partition coefficients and their uses”. Chem Rev 71 (6): 525-616. • Wilkinson, Andrew M.; McNaught, Alan D. (1997). “Partition Coefficient”. Compendium of Chemical Terminology: IUPAC Recommendations. Oxford: Blackwell Science. doi:10.1351/goldbook. ISBN 0-86542-684-8. http://goldbook.iupac.org/P0447.html and • Sangster, James (1997). Octanol-Water Partition Coefficients: Fundamentals and Physical Chemistry, Vol. 2 of Wiley Series in Solution Chemistry. Chichester: John Wiley & Sons Ltd. pp. 178 pages. The RPI of retinol is approximatively 1. The RPI of retinal and retinol esters are well-known by the one skilled in the art and are similar to RPI of retinol. The net RPI of an emollient to the retinoid is the difference between the Emollient RPI and the Retinoid RPI. The net RPI of a composition to the retinoid is the difference between the Composition RPI and the Retinoid RPI. […]

net relative polarity index to retinol [2] | Compound | RPI (relative polarity index) [1]
 | CC1=C(/C=C/C(C)=C/C=C/C(C)=C/CO)C(C)(C)CCC1 [retinol] | ~1
having the same polarity as retinol | PPG15 stearyl ether | 
9.11 | CCCCCCCCCCCCCC(C)C [isohexadecane] | 
